Laboratory results reported in patent US4291042A, “Antidepressant piperidine derivatives” (John Wyeth & Brother Limited, priority 1979, dated 1981).

What was measured:
[1] = system: neuronal uptake of noradrenaline into slices of cerebral cortex; assay: inhibition of noradrenaline uptake in brain slices; type: biochemical, rat; settings: for inhibition of noradrenaline uptake (in words): rat brain slices; for Potency Ratio (imipramine = 1.0) Noradrenaline: rat cerebral cortex slices, H^3 noradrenaline
Experimental: (§1) The compounds of formula I were tested for the ability to inhibit noradrenaline and 5-hydroxytryptamine uptake in brain slices in the following standard test:
Concentration-response curves are obtained both for the test compound and for the standard agent, imipramine. The potency of each test compound is expressed in proportion to that of imipramine. Thus, [formula]

[2] = system: uptake of 5-hydroxytryptamine; assay: inhibition of 5-hydroxytryptamine uptake in brain slices; type: biochemical, rat; design: key: Compounds not achieving 50% inhibition are considered inactive; settings: for inhibition of 5-HT (hydroxytryptamine) uptake (in words): rat brain slices; for Potency Ratio (imipramine = 1.0) 5-hydroxytryptamine: rat cerebral cortex slices, H^3 5-hydroxytryptamine
Experimental: as §1
The effects of test compounds on the neuronal uptake of noradrenaline into slices of cerebral cortex prepared from rat brain is determined according to the method described by Snyder, Green and Hendley, Kinetics of H^3 --norepinephrine accumulation into slices from different regions of the rat brain (J.Pharm. exp. Therap. 164: 90-102) (1968). The effects of test compounds on the uptake of 5-hydroxytryptamine is obtained in a similar manner except that H^3 5-hydroxytryptamine is used in place of H^3 noradrenaline. Concentration-response curves are obtained both for the test compound and for the standard agent, imipramine. The potency of each test compound is expressed in proportion to that of imipramine. Thus, [formula]

[3] = system: p-chloroamphetamine induced hyperactivity; assay: inhibition of p-chloroamphetamine (pCA) induced hyperactivity; type: in vivo; settings: female mice; 50 mg/kg po; 20 mg/kg pCA ip 30 min later; activity 10-30 min post pCA
Experimental: Compounds of formula I were also tested for their ability to inhibit p-chloroamphetamine induced hyperactivity. The following procedure was used:
Three groups of 4 female mice (20-24 g) received the test compounds (50 mg/kg po) and a fourth group the requisite volume of vehicle. Thirty minutes later all the animals are given 20 mg/kg p-chloroamphetamine (pCA) ip. The grouped mice are placed immediately in square plastic cages in activity monitors and their motor activity recorded over the period 10-30 minutes post pCA. This procedure is repeated three more times so that four groups of mice are used per treatment and each activity monitor is used with all treatments in turn. The inhibition of pCA induced hyperactivity is calculated thus: [formula] where C=mean activity of control groups 10-30 minutes post pCA.
T=mean activity of treated groups 10-30 minutes post pCA.
This test is used as an in vivo screen for detection of 5-hydroxytryptamineuptake inhibitors.
Compounds giving >50% inhibition are considered of special interest. In such a test the following compounds were particularly active: […]

SMILES | inhibition of noradrenaline uptake (in words) [1] | Potency Ratio (imipramine = 1.0) Noradrenaline [1] | inhibition of 5-HT (hydroxytryptamine) uptake (in words) [2] | Potency Ratio (imipramine = 1.0) 5-hydroxytryptamine [2] | % Inhibition of pCA induced hyperactivity [3] [%]
O=C1c2ccccc2C(=O)N1C1CCN(Cc2ccccc2)CC1 [B, 2-(1-benzylpiperid-4-yl)-1H-isoindol-1,3-(2H)-dione, reference compound] | inactive | inactive | inactive | inactive | –
O=C1c2ccccc2S(=O)(=O)N1C1CCN(Cc2c[nH]c3ccccc23)CC1 [Example 3, 2-(1-[Indol-3-ylmethyl]piperid-4-yl)-1,2-benzisothiazolin-3-one-1,1-dioxide] | – | – | – | – | 56
O=C1c2ccc(Cl)cc2C(=O)N1C1CCN(CCc2c[nH]c3ccccc23)CC1 [Example 8, 5-Chloro-2-(1-[2-(indol-3-yl)ethyl]piperid-4-yl)-1H-isoindole-1,3-(2H)-dione] | – | – | – | – | 94
O=C1c2ccc(Cl)cc2C(=O)N1C1CCN(Cc2c[nH]c3ccccc23)CC1 [Example 16, 5-Chloro-2-[1-(indol-3-ylmethyl)piperid-4-yl]-1H-isoindole-1,3-(2H)-dione] | – | – | – | – | 63
O=C1c2ccccc2C(=O)N1C1CCN(Cc2c[nH]c3ccccc23)CC1 [I, 2-(1-[Indol-3-ylmethyl]piperid-4-yl)-1H-isoindole-1,3-(2H)-dione] | very weak inhibitors | 0.01 | potent inhibitors | 9.5 | 53
O=C1c2ccccc2C(=O)N1C1CCN(CCc2c[nH]c3ccccc23)CC1 [II, 2-(1-[2-(Indol-3-yl)ethyl]piperid-4-yl)-1H-isoindol-1,3-(2H)-dione] | very weak inhibitors | 0.06 | potent inhibitors | 8.3 | –
Nc1ccc2c(c1)C(=O)N(C1CCN(CCc3c[nH]c4ccccc34)CC1)C2=O [III, 5-amino-2-(1-[2-(indol-3-yl)ethyl]piperid-4-yl)-1H-isoindole-1,3-(2H)-dione] | very weak inhibitors | inactive | potent inhibitors | 11.0 | –
